The results in this text go back to US20220401514A1, “ANTIMICROBIAL, BACTERIOPHAGE-DERIVED POLYPEPTIDES AND THEIR USE AGAINST GRAM-NEGATIVE AND ACID-FAST BACTERIA” (CONTRAFECT CORPORATION, priority 2019, published 2022).

Assay [1] relates to M. kansasii Hauduroy ATCC 12478. In words: 45 hr MIC against M. kansasii (NTM), Mueller Hinton broth. The format is cell-based, Mycobacterium kansasii. The conditions noted are these: Mycobacterium kansasii, ATCC12478, 45 h, read-out: 45 hr MIC.
Assay [2] has as its system Klebsiella pneumoniae. Kind of assay: microbe, parasite or virus in culture. The conditions noted are these: Klebsiella pneumoniae, read-out: MIC (in brackets beside MBEC). The format is cell-based.
In assay [3] the test system is M. smegmatis. In words: 45 hr MIC against M. smegmatis (NTM), Mueller Hinton broth. The format is cell-based, Mycobacterium smegmatis. As to conditions: Mycolicibacterium smegmatis, MC^2155, 45 h, read-out: 45 hr MIC; M. smegmatis MC^2 155, Run #2.
Assay [4] has as its system P. aeruginosa strain CFS-1292. Kind of assay: Checkerboard assay (FICI) with antibiotics, P. aeruginosa. The format is cell-based, Pseudomonas aeruginosa. The conditions noted are these: P. aeruginosa CFS-1292. A digest of the protocol:
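Antibiotic diluted 2-fold along one plate axis against Chp peptide; bacteria added at 1×10^5 […] in CAA, optionally with human serum or pulmonary surfactant.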

Converted amounts (≈) assume the structure as drawn. Where two headings read alike, the source gives them in different places. Bounds are passed on as bounds.

As to `NC[C@H]1O[C@H](O[C@H]2[C@H](O)[C@@H](O[C@H]3O[C@H](CO)[C@@H](O)[C@H](N)[C@H]3O)[C@H](N)C[C@@H]2N)[C@H](N)C[C@@H]1O` [tobramycin, reference compound], the MIC in assay [1] is 16 µg/mL (≈ 34.2 µM); in assay [2] (ATCC700603, K. pneumoniae (ATCC 700603), control agents of Table 8), less than 0.5 µg/mL; in assay [2], less than 0.5 µg/mL; in assay [3], 0.125 µg/mL (≈ 0.267 µM). Moreover, the “Antibiotic FIC” value in assay [4] (combined with Chp2-M1), in assay [4] (combined with Chp2), in assay [4] (combined with Chp4-M1), in assay [4] (combined with Chp6-M1), in assay [4] (combined with Chp10-M1) and in assay [4] (combined with Unp2-M1) was 0.25 each time.
